{"source": "paper PMC2365101", "about": "“Anti-Inflammatory Activity of (Polyphenolic)-Sulfonates and Their Sodium Salts in Rodents” (Metal-Based Drugs, 1998)", "key": {"[1]": {"system": "IL-8 high affinity receptor on chinese hamster ovarian carcinoma K-1 cells", "experiment": "125I-IL-8 high affinity binding to chinese hamster ovarian carcinoma K-1 cells", "conditions": "for 125I-IL-8 binding, Percent of Control: N=6"}, "[2]": {"biological_target": "J774-A1 macrophage elastase", "experiment": "Elastase activity in J774-A1 macrophages", "format": "biochemical, mouse"}, "[3]": {"system": "CF1 male mice, LPS Salmonella abortus equi induced death", "experiment": "Protection against septic shock (LPS induced endotoxic shock)", "format": "in vivo", "conditions": "for Percent Survival at 52 hr: LPS 10 mg/kg, CF1 male mice, N=6", "description": "Few reports in the literature indicate interaction at these receptor sites other than by peptides or antibodies. […] Blocking these receptors is desirable because the entire inflammation cascade of events is triggered by the early release of TNFa and IL-1. […] Radioisotopes were obtained from New England Nuclear [Dupont, Boston, MA] and substrates and co- factors were obtained from Sigma Chemical Co. [St. Louis, MO]. […] Cell lines were obtained from American Type Culture Collection [Rockville, MD]. In Vivo Tests Anti-inflammatory screen in mice: Male CF male mice weighing 28-32g obtained from Jackson Lab. [Bar Harbor, […]] were used to screen agents at 8 or 16 mg/kg intraperitoneal [I.P.] x 2 administered 3 hr and 30 min prior to administering the irritant, according to Winter's protocol. Evaluation of the induced edema was made by injecting 2% carrageenan in 0.9% saline into the plantar region of the foot. The opposite foot injected with 0.9% isotonic saline was used as a base line. […] Salmonella abortus equi [Lot # 69F4003] […] Drugs from 2 to 16 mg/kg, I.P. were administered 2 hr prior and 2 hr post-injection of the LPS and then subsequently for every 24 hr for the length ofthe animals' lives. Deaths were recorded every 12 hr and continued for 96 hr. […] In vitro TNFa andIL-1 Measurements and Cellular Regulation IC-21 mouse macrophages were maintained in RPMI-1640 + 10% FCS + P/S. After the cells had grown to confluency, E. coli LPS at 10 Ixg/ml was added to the medium. Agents were incubated at 12.5 to 100 µM final concentration for 18 hr. The medium (100 btl) was collected for TNFCt determinations. Interleukin-1 [IL-1] release was determined using P388D1 cells which were maintained in RPMI-1640 + 10% FCS + P/S. The L929 bioassay was used to quantitate the TNF and the IL-1 levels. The L929 mouse fibroblasts were grown in DMEM + 10% FCS + P/S to confluency in 96 well plates and incubated with 100 tl ofmedium from […] or P388D cells after 18 hr. The cells were stained with 0.2% crystal violet in 20% MeOH and read at 580 nm using a Molecular Devices scanner (SOFT-max program). High Affinity Binding to Receptors on L929-106 Cells Two laCi of 125I-TNFct (human recombinant, 30 mCi/tg New England Nuclear) or 125I-IL-1 (70-120[.t Ci/lxg,New England Nuclear) was added to confluency L929 cells for 90 min or 5 hr, respectively with 25, 50 and 100 tM of the test compounds 12]. The cells were washed repeatedly with isotonic saline, pH.7.2 and aliquots counted. Prostaglandin cylcooxygenase activity Mouse J774AI macrophages maintained in Dulbecco's modified Eagle's medium + 15% FCS + P/S. Cells (5 x 106) were incubated with agents (5 to 100 ].tM final concentration) and 3H-arachidonic acid (100 Ci/mol) for 60 min at 37C in a CO2 incubator. The reaction was terminated with 2N HCI, the mixture extracted 2 X with ether, and the organic layer evaporated."}, "[4]": {"biological_target": "T1, IL-2 high affinity receptor on HUT78 T lymphoma cell membrane (Homo sapiens, UniProt P01589+P14784)", "T1 construct": "host or cells: HuT78 T lymphoma cells", "T1 sequence (P01589 22-272)": "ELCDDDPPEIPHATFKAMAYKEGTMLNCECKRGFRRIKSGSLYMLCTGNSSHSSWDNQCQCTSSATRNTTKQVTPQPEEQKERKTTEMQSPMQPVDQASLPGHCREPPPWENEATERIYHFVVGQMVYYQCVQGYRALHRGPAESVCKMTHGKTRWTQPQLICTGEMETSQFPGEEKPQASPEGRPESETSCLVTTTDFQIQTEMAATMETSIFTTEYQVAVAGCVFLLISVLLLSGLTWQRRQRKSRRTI", "T1 sequence (P14784 27-551)": "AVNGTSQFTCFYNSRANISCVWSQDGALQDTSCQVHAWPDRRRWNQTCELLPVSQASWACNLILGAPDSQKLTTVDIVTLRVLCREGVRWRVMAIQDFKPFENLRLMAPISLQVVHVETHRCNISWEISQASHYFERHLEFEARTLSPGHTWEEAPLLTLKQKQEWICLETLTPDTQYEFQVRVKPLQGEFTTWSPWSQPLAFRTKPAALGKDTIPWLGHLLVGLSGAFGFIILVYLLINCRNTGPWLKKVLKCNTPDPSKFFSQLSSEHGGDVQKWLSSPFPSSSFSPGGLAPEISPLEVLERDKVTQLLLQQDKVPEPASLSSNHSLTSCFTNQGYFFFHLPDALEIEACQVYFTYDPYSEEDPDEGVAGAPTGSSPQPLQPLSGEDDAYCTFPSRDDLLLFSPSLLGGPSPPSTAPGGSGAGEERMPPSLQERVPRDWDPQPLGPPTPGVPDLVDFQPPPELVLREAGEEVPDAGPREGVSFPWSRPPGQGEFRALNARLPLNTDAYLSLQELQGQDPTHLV", "experiment": "125I-IL-2 high affinity binding to HuT78 T lymphoma cells", "conditions": "for 125I-IL-2 binding, Percent of Control: N=6"}, "[5]": {"system": "J774 A1 mouse macrophages adhesion to L929 fibroblasts", "experiment": "Adhesion of J-774 A1 mouse macrophages to confluent L929 fibroblasts", "format": "cell-based", "conditions": "N=6"}, "[6]": {"system": "RPMI 1788 leukocytes adhesion to L929 fibroblasts", "experiment": "Adhesion of human leukocytes RPMI-1788 to confluent L929 fibroblasts", "format": "cell-based", "conditions": "for Adhesion, Percent of Control: N=6"}}, "data": [{"smiles": "CC(=O)Oc1c2cc(S(=O)(=O)[O-])cc1Cc1cc(S(=O)(=O)[O-])cc(c1OC(C)=O)Cc1cc(S(=O)(=O)[O-])cc(c1OC(C)=O)Cc1cc(S(=O)(=O)[O-])cc(c1OC(C)=O)Cc1cc(S(=O)(=O)[O-])cc(c1OC(C)=O)Cc1cc(S(=O)(=O)[O-])cc(c1OC(C)=O)Cc1cc(S(=O)(=O)[O-])cc(c1OC(C)=O)Cc1cc(S(=O)(=O)[O-])cc(c1OC(C)=O)C2.[Na+].[Na+].[Na+].[Na+].[Na+].[Na+].[Na+].[Na+]", "note": "[Compound 8]", "values": [{"measurement": "125I-IL-8 binding, Percent of Control", "setting": "[1]; 50 μM, 5 Hours", "value": "79 + 4% of Control"}, {"measurement": "125I-IL-8 binding, Percent of Control", "setting": "[1]; 50 μM, 24 Hours", "value": "58 + 7% of Control"}, {"measurement": "reduction of IL-8 high affinity binding", "setting": "[1]; 50 μM, 5 hr", "value": "21-23%"}, {"measurement": "125I-IL-8 binding, Percent of Control", "setting": "[1]; 100 μM, 24 Hours", "value": "51 + 6% of Control"}, {"measurement": "reduction of IL-8 high affinity binding", "setting": "[1]; 24 hr", "value": "greater than 40%"}, {"measurement": "IC50", "setting": "[2]; 60 min", "value": "10 to 30", "unit": "µM"}, {"measurement": "IC50", "setting": "[2]; 60 min, listed as #8", "value": 24.5, "unit": "µM"}, {"measurement": "IC50", "setting": "[2]; 120 min", "value": 350, "unit": "µM"}, {"measurement": "Percent Survival at 52 hr", "setting": "[3]; 2 mg/kg I.P.", "value": 67, "unit": "%"}, {"measurement": "Percent Survival at 52 hr", "setting": "[3]; 4 mg/Kg I.P.", "value": 67, "unit": "%"}, {"measurement": "Percent Survival at 52 hr", "setting": "[3]; 8 mg/Kg I.P.", "value": 67, "unit": "%"}, {"measurement": "Percent Survival at 52 hr", "setting": "[3]; 16 mg/Kg I.P.", "value": 83, "unit": "%"}, {"measurement": "protection from LPS induced death", "setting": "[3]; 16 mg/kg", "value": 83, "unit": "%"}, {"measurement": "125I-IL-2 binding, Percent of Control", "setting": "[4]; 5 μM, 2 Hours", "value": "138 + 5% of Control"}, {"measurement": "125I-IL-2 binding, Percent of Control", "setting": "[4]; 5 μM, 5 Hours", "value": "85 + 5% of Control"}, {"measurement": "125I-IL-2 binding, Percent of Control", "setting": "[4]; 12.5 μM, 2 Hours", "value": "215 + 7% of Control"}, {"measurement": "125I-IL-2 binding, Percent of Control", "setting": "[4]; 12.5 μM, 5 Hours", "value": "78 + 4% of Control"}, {"measurement": "125I-IL-2 binding, Percent of Control", "setting": "[4]; 25 μM, 2 Hours", "value": "88 + 6% of Control"}, {"measurement": "125I-IL-2 binding, Percent of Control", "setting": "[4]; 25 μM, 5 Hours", "value": "59 + 5% of Control"}, {"measurement": "125I-IL-2 binding, Percent of Control", "setting": "[4]; 50 μM, 2 Hours", "value": "38 + 4% of Control"}, {"measurement": "125I-IL-2 binding, Percent of Control", "setting": "[4]; 50 μM, 5 Hours", "value": "55 + 6% of Control"}, {"measurement": "reduction of IL-2 binding", "setting": "[4]; 50 μM, 2 hr", "value": 62, "unit": "%"}, {"measurement": "reduction of IL-2 high affinity binding", "setting": "[4]; 50 μM, 5 hr", "value": 45, "unit": "%"}, {"measurement": "Adhesion, Percent of Control", "setting": "[5]; 5 μM, 2 Hours", "value": "73 + 5% of Control"}, {"measurement": "Adhesion, Percent of Control", "setting": "[5]; 5 μM, 5 Hours", "value": "107 + 5% of Control"}, {"measurement": "Adhesion, Percent of Control", "setting": "[5]; 5 μM, 90 min", "value": "136 + 5% of Control"}, {"measurement": "Adhesion, Percent of Control", "setting": "[5]; 12.5 μM, 2 Hours", "value": "61 + 6% of Control"}, {"measurement": "Adhesion, Percent of Control", "setting": "[5]; 12.5 μM, 5 Hours", "value": "106 + 6% of Control"}, {"measurement": "Adhesion, Percent of Control", "setting": "[5]; 12.5 μM, 90 min", "value": "135 + 7% of Control"}, {"measurement": "Adhesion, Percent of Control", "setting": "[5]; 25 μM, 2 Hours", "value": "91 + 5% of Control"}, {"measurement": "Adhesion, Percent of Control", "setting": "[5]; 25 μM, 5 Hours", "value": "125 + 7% of Control"}, {"measurement": "Adhesion, Percent of Control", "setting": "[5]; 25 μM, 90 min", "value": "183 + 7% of Control"}, {"measurement": "Adhesion, Percent of Control", "setting": "[5]; 50 μM, 2 Hours", "value": "92 + 6% of Control"}, {"measurement": "Adhesion, Percent of Control", "setting": "[5]; 50 μM, 5 Hours", "value": "131 + 7% of Control"}, {"measurement": "Adhesion, Percent of Control", "setting": "[5]; 50 μM, 90 min", "value": "94 + 6% of Control"}, {"measurement": "Adhesion, Percent of Control", "setting": "[6]; 5 μM, 60 min", "value": "49 + 7% of Control"}, {"measurement": "Adhesion, Percent of Control", "setting": "[6]; 5 μM, 90 min", "value": "108+6% of Control"}, {"measurement": "Adhesion, Percent of Control", "setting": "[6]; 12.5 μM, 60 min", "value": "40+ 5% of Control"}, {"measurement": "Adhesion, Percent of Control", "setting": "[6]; 12.5 μM, 90 min", "value": "65 +6% of Control"}, {"measurement": "Adhesion, Percent of Control", "setting": "[6]; 25 μM, 2 Hours", "value": "108+4% of Control"}, {"measurement": "Adhesion, Percent of Control", "setting": "[6]; 25 μM, 60 min", "value": "41 +5% of Control"}, {"measurement": "Adhesion, Percent of Control", "setting": "[6]; 25 μM, 90 min", "value": "63+3% of Control"}, {"measurement": "Adhesion, Percent of Control", "setting": "[6]; 50 μM, 2 Hours", "value": "116+6% of Control"}, {"measurement": "Adhesion, Percent of Control", "setting": "[6]; 50 μM, 60 min", "value": "55+4% of Control"}, {"measurement": "reducing the adhesion of human leukocytes", "setting": "[6]; 5 to 50 μM, at 2 and 5 hr", "value": "not effective"}, {"measurement": "reducing significantly the adhesion of human leukocytes", "setting": "[6]; 5 to 50 μM, at 60 and 90 min", "value": "effective"}]}]}
